The record followed here is paper PMC7251018, “Structures of a P4-ATPase lipid flippase in lipid bilayers” (Protein & Cell, 2020).

Experiment [1] concerns the target T1, ctDnf1p-Cdc50p (Thermochaetoides thermophila, UniProt G0S196). Set-up: gene DNF1. Particulars: E2P state; phosphorylation site D606; phosphate analogue.
In experiment [2] the target is T1, ctDnf1p-Cdc50p. As to the kind of experiment: ATPase activity. In kind it is biochemical. Set-up: gene DNF1; purified heterodimer; reconstituted into lipid nanodiscs (MSP) for cryo-EM; printed residues D606 (phosphorylation site), Q549, N550, S555, S559, E561, N1153, S1158; with Cell division control protein 50 (CDC50 family beta-subunit). The conditions noted are these: phospholipid-dependent.

Experiment [3] addresses T1, ctDnf1p-Cdc50p. Put plainly: cryo-EM structure in lipid nanodiscs, […] Å. Also on record: gene DNF1; purified heterodimer; reconstituted into lipid nanodiscs (MSP) for cryo-EM; printed residues D606 (phosphorylation site), Q549, N550, S555, S559, E561, N1153, S1158; with Cell division control protein 50 (CDC50 family beta-subunit). The conditions noted are these: E1-ATP state; nucleotide-binding site, extended conformation.

T1 sequence (G0S196 whole entry): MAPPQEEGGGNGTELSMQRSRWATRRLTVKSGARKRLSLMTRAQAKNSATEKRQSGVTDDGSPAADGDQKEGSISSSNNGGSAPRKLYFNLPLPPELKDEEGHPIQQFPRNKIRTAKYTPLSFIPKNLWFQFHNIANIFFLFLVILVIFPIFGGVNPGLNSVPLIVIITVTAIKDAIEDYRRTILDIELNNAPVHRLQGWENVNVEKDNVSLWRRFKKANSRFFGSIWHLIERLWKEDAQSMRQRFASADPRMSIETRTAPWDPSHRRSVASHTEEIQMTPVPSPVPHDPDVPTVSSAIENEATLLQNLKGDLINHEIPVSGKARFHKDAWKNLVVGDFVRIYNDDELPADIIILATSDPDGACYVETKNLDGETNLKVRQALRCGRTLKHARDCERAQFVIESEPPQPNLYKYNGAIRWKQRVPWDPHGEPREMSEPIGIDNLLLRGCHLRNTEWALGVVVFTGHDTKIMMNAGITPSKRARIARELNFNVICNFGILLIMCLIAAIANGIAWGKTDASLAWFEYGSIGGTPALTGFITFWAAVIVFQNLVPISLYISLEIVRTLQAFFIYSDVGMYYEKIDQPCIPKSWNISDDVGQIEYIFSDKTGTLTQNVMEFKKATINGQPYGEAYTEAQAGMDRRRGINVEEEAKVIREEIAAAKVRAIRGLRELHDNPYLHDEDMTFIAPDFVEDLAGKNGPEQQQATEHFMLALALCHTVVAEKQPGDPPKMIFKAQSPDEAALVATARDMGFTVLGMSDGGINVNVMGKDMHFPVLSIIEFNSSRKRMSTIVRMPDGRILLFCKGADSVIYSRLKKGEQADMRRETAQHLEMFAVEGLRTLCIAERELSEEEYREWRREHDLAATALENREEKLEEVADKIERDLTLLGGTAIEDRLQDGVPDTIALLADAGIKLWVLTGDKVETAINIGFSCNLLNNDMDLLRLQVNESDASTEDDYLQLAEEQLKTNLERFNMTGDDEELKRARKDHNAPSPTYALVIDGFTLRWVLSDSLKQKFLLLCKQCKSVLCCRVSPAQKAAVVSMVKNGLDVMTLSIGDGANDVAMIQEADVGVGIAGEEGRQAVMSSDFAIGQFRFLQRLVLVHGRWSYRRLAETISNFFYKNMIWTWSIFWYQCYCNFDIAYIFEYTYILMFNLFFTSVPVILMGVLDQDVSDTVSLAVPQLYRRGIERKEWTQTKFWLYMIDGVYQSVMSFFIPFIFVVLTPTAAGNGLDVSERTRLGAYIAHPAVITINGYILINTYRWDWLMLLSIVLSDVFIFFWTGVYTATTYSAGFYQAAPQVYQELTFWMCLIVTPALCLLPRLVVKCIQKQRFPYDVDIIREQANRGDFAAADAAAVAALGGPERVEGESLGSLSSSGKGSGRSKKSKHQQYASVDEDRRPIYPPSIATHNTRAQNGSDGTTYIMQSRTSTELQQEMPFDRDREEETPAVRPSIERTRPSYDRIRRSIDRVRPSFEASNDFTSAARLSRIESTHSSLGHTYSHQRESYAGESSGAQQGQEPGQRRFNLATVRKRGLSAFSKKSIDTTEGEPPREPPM
T1 sequence (G0SDN0 whole entry partner): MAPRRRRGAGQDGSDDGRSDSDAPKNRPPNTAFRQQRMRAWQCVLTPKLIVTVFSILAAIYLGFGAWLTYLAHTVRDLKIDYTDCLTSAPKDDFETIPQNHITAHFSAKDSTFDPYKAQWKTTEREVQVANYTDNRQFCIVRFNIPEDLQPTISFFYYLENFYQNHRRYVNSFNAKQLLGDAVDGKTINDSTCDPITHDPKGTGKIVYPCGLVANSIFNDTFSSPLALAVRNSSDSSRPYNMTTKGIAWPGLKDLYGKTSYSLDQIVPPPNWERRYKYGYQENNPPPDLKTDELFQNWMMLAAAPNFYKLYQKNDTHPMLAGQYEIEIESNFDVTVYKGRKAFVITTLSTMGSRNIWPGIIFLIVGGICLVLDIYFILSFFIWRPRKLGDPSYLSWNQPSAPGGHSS

`[F][Be-]([F])[F]` [BeF3^−]: the “cryo-EM structure in lipid nanodiscs, 3.4 Å” value at ctDnf1p-Cdc50p [1] is on record as “In the E2P structure, BeF3^− is bound at the phosphorylation site D606”.

`Nc1ncnc2c1ncn2[C@@H]1O[C@H](COP(=O)(O)OP(=O)(O)OP(=O)(O)O)[C@@H](O)[C@H]1O` [ATP]: the ATPase activity result at ctDnf1p-Cdc50p [2] is on record as “The purified ctDnf1p-Cdc50p heterodimer showed phospholipid-dependent ATPase activity”.

Take `Nc1ncnc2c1ncn2[C@@H]1O[C@H](COP(=O)(O)OP(=O)(O)CP(=O)(O)O)[C@@H](O)[C@H]1O` [AMPPCP]: the “cryo-EM structure in lipid nanodiscs, 3.5 Å” value on ctDnf1p-Cdc50p [3] was “In the E1-ATP structure, AMPPCP adapts an extended conformation”.
